Assay [1] has as its target MAP kinase-interacting serine/threonine-protein kinase 2 (Homo sapiens, UniProt Q9HBH9). Kind of assay: Selectivity interaction (LanthaScreen Eu Kinase Binding Assay) EUB0001632a MKNK2. The conditions noted are these: at 10 µM.
Assay [2] has as its target Interleukin-1 receptor-associated kinase 1 (Homo sapiens) (UniProt P51617). Kind of assay: Selectivity interaction (KinomeScan (DiscoverX)) EUB0001079a IRAK1. To be noted: at 1 µM.
The target in assay [3] is T1, Dual specificity mitogen-activated protein kinase kinase 5 (Homo sapiens) (UniProt Q13163).
T1 sequence (whole entry): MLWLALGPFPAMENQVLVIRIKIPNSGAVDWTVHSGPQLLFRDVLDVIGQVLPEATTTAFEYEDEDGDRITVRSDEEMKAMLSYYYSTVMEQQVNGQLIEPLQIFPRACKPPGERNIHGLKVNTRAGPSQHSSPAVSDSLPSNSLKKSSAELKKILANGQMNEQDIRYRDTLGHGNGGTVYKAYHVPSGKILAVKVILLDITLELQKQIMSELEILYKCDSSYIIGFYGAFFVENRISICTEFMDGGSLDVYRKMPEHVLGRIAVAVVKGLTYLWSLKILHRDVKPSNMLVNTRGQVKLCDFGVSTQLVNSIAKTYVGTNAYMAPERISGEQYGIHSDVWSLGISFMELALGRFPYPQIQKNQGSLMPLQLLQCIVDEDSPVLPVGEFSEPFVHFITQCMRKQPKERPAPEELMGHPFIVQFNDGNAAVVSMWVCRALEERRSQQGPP
Kind of assay: Selectivity interaction (KinomeScan (DiscoverX)) EUB0001079a MAP2K5. The conditions noted are these: at 1 µM.

Assay [4] concerns Epidermal growth factor receptor (Homo sapiens), P00533 [UNDEFINED MUTATION]. Kind of assay: Selectivity interaction (KinomeScan (DiscoverX)) EUB0001619a EGFR. The conditions noted are these: at 1 µM.
Epidermal growth factor receptor (Homo sapiens), P00533 [UNDEFINED MUTATION], sequence (P00533 whole entry, looked up, change not shown): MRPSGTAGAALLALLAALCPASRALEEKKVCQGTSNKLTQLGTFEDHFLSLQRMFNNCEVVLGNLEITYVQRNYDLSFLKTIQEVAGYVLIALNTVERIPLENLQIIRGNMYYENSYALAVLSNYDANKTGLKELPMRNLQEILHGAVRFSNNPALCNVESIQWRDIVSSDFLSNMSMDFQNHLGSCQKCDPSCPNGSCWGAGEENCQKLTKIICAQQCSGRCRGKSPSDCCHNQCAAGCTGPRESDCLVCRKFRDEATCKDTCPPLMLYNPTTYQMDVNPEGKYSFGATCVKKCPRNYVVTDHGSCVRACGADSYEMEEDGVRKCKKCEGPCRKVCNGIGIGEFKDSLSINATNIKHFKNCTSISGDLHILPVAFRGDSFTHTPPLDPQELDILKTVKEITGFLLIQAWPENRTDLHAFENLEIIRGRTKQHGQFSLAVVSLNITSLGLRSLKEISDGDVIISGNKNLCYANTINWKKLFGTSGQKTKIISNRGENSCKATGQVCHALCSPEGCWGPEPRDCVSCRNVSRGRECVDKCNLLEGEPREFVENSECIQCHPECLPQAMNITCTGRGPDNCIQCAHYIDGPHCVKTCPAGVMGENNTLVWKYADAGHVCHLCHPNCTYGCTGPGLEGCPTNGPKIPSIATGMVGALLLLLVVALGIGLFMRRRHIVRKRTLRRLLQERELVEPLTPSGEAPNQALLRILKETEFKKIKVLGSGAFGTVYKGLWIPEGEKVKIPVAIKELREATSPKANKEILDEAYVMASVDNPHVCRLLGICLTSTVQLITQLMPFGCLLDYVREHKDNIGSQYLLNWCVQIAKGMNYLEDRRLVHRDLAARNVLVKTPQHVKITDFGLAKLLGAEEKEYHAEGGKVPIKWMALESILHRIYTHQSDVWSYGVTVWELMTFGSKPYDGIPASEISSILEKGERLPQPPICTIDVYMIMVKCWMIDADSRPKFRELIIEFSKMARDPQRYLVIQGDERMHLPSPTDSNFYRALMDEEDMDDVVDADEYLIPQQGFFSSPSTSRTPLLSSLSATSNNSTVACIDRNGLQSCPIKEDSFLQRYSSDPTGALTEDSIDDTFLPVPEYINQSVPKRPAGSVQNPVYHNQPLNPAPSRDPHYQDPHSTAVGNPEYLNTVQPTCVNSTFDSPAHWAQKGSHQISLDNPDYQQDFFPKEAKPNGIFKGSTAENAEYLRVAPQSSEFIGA
The target of assay [5] is T2, Serine/threonine-protein kinase greatwall (Homo sapiens) (UniProt Q96GX5).
T2 sequence (whole entry): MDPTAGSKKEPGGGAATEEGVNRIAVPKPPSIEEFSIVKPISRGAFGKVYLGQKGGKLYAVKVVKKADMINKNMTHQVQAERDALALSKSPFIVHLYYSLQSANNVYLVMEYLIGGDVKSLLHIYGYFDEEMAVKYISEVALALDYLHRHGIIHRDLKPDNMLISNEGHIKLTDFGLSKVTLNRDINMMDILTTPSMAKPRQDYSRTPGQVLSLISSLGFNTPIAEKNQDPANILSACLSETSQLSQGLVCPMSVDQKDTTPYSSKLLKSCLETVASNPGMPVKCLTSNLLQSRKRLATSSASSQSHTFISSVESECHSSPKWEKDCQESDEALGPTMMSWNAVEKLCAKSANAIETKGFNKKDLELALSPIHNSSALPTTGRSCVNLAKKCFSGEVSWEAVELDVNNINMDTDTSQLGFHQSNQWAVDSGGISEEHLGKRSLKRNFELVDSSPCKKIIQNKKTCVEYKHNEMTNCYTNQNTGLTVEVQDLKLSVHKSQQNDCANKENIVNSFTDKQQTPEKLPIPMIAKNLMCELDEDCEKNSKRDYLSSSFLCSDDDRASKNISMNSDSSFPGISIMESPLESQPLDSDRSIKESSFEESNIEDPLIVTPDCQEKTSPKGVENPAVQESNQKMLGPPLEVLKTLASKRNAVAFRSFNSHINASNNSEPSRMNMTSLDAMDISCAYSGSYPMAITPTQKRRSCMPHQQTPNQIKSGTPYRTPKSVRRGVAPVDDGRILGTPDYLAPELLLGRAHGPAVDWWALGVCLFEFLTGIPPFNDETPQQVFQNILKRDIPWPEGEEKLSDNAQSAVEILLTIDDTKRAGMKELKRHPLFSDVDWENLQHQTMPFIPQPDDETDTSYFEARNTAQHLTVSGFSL
Kind of assay: Selectivity interaction (ActivX KiNativ screen (kinase selectivity in THP-1 cell lysates)) EUB0000639a MASTL. Format: subcellular. To be noted: lysate, at 1 µM.

For assay [6], the target named is T3, Scaffold protein ILK (Homo sapiens) (UniProt Q13418).
T3 sequence (whole entry): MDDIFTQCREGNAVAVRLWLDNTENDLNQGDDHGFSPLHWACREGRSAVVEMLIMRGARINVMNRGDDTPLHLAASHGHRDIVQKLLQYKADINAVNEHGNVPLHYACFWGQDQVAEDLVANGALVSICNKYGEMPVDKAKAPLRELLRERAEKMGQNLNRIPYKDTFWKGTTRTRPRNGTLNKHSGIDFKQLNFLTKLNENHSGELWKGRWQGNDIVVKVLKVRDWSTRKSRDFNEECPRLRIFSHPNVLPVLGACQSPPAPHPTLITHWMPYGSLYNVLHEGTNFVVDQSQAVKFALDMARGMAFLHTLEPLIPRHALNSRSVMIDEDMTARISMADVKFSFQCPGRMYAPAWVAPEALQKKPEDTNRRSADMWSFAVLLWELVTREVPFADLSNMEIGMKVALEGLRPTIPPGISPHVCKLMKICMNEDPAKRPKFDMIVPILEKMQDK
The assay can be described thus: Selectivity interaction (ActivX KiNativ screen (kinase selectivity in THP-1 cell lysates)) EUB0000639a ILK. Format: subcellular. The conditions noted are these: lysate, at 1 µM.

The target in assay [7] is Protein kinase C beta type (Homo sapiens, UniProt P05771). The assay can be described thus: Selectivity interaction (Millipore kinase profiler) EUB0000124b PRKCB. The conditions noted are these: at 10 µM.
Protein kinase C beta type, sequence (P05771 2-671 limits assumed): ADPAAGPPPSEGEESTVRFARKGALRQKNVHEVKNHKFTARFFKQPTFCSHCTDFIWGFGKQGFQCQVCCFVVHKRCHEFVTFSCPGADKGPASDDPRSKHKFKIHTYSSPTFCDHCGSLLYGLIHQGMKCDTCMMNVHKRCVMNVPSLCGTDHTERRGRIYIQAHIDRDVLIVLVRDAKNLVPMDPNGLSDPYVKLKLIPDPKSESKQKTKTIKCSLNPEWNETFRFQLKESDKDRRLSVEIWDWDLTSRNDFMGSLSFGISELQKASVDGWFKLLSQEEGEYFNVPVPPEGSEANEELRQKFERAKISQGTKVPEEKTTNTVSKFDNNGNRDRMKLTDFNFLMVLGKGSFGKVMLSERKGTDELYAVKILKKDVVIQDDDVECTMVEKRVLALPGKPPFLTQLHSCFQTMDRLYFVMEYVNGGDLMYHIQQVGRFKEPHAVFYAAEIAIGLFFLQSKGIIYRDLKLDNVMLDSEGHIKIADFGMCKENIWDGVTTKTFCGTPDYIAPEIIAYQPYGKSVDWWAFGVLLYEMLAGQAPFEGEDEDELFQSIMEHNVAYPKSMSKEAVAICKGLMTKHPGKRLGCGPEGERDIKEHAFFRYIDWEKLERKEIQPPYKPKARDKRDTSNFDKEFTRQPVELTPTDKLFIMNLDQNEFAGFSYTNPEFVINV
Assay [8] concerns the target Citron Rho-interacting kinase (Homo sapiens) (UniProt O14578). The assay can be described thus: Selectivity interaction (KinomeScan (DiscoverX)) EUB0001049a CIT. To be noted: at 1 µM.
Assay [9] addresses T4, Serine/threonine-protein kinase 4 (Homo sapiens) (UniProt Q13043).
T4 sequence (whole entry): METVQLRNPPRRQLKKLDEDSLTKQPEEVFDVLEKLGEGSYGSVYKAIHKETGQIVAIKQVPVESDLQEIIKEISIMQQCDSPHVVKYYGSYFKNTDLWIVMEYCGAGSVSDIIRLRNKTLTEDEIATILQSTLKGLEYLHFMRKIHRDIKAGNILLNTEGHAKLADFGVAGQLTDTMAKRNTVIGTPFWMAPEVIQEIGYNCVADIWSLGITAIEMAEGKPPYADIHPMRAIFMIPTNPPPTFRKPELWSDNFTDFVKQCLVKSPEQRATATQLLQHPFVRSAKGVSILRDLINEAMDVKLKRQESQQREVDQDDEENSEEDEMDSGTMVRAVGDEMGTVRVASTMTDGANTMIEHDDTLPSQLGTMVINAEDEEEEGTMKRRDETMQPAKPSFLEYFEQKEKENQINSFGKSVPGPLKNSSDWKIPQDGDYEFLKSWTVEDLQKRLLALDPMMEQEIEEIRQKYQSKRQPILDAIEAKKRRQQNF
The assay can be described thus: Selectivity interaction (KinomeScan (DiscoverX)) EUB0000695a STK4. To be noted: at 100 nM.

Assay [10] deals with Protein kinase C delta type (Homo sapiens) (UniProt Q05655). Kind of assay: Selectivity interaction (ProQinase) EUB0000171b PRKCD.
Protein kinase C delta type (Homo sapiens), sequence (Q05655 whole entry, looked up): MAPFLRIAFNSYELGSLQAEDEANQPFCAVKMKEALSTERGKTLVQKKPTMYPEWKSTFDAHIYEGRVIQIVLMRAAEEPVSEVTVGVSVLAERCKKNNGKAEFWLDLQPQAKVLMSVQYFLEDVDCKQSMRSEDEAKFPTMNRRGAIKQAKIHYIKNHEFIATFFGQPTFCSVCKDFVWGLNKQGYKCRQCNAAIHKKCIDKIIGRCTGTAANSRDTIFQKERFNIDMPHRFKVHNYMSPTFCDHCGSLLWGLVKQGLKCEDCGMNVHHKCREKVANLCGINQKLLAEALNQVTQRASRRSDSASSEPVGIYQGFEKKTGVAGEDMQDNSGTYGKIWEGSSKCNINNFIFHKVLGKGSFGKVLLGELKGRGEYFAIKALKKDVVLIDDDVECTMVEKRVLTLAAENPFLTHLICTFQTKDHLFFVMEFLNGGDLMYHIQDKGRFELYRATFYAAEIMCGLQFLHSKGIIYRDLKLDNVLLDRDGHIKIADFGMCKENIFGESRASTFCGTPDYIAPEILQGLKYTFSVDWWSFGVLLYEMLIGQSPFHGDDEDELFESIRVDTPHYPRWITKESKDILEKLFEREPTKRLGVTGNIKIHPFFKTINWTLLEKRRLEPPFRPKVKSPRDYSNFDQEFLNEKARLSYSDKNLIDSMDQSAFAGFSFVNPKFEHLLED
For assay [11], the target named is Tyrosine-protein kinase ABL1 (Homo sapiens, UniProt P00519). The assay can be described thus: Selectivity interaction (KinomeScan (DiscoverX)) EUB0000045b ABL1. To be noted: at 10 µM.
Tyrosine-protein kinase ABL1, sequence (P00519 whole entry): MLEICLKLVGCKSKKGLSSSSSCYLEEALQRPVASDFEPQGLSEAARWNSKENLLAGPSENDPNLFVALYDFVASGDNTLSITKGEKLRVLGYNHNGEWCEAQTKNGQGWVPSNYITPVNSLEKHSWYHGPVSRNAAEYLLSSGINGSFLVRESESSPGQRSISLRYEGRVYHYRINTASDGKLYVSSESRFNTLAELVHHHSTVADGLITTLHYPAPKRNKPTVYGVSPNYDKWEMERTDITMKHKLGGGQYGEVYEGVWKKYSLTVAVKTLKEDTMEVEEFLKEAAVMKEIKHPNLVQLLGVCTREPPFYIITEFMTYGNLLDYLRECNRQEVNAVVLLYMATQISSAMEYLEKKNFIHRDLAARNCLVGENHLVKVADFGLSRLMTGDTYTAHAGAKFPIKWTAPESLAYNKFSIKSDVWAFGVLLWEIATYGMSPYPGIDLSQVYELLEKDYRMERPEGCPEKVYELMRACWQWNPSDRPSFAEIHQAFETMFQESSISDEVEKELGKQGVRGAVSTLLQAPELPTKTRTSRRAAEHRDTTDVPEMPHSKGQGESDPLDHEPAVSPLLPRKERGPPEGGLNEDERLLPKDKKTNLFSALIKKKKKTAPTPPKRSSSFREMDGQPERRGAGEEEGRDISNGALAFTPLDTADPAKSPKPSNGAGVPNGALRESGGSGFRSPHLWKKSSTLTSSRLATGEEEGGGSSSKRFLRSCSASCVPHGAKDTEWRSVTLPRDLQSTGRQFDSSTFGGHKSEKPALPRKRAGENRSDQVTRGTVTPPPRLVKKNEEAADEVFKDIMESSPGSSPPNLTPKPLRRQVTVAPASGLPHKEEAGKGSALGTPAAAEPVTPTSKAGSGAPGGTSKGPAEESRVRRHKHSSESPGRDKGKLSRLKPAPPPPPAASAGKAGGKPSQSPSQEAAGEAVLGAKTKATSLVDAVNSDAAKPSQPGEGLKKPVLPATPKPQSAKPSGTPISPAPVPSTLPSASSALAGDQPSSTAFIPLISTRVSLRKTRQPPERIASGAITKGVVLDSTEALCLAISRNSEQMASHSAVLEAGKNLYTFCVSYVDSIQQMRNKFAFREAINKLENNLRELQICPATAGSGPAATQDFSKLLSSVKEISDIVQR

MAP kinase-interacting serine/threonine-protein kinase 2, sequence (Q9HBH9 whole entry, looked up): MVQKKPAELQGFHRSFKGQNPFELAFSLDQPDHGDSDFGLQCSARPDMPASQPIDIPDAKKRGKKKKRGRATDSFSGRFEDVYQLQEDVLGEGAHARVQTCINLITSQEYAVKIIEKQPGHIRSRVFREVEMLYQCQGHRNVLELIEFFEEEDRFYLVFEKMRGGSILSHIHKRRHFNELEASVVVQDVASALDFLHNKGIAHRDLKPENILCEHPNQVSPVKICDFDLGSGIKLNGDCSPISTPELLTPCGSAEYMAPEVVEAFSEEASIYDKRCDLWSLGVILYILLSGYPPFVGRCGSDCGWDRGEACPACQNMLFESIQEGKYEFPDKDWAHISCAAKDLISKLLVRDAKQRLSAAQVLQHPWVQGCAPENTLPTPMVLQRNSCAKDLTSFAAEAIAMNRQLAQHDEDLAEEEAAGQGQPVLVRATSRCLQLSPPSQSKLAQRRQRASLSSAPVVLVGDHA
Interleukin-1 receptor-associated kinase 1 (Homo sapiens), sequence (P51617 whole entry, looked up): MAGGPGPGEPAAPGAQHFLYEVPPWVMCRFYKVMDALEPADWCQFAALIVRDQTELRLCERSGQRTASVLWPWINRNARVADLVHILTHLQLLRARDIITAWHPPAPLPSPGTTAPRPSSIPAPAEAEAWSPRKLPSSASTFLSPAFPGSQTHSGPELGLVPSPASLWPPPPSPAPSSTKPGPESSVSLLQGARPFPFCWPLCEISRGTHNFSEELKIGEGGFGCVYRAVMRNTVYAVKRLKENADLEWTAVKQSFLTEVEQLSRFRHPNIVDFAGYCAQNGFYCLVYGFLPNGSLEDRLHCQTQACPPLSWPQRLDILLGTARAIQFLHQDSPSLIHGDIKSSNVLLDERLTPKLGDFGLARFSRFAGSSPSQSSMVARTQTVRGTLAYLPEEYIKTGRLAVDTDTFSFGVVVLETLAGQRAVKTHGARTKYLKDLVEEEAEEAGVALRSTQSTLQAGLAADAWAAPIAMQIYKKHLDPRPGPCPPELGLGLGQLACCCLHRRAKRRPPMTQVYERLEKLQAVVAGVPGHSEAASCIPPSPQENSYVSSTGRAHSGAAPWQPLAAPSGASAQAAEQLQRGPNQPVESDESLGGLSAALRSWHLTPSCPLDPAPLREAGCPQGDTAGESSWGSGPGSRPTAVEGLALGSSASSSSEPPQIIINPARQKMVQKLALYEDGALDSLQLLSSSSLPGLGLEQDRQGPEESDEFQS

In the case of `Cn1cc(-n2cnc3c(NCc4nc5cc(Cl)c(Cl)cc5[nH]4)nc(N4CCOCC4)nc32)cn1`, the % of inhibition in assay [1] was -36%.

For the compound `Nc1cnc(N2CCc3cc(S(=O)(=O)Nc4c(F)cc(Cl)cc4F)cc(N4CCCC4=O)c32)nc1` [TP-020n], the % of control in assay [2] was determined as 100%; in assay [3], 84%.

In [4], `N#Cc1cccc(-c2c[nH]c3ncnc(N4CCOCC4)c23)c1` had a % of control of 82%.

On to `CC[C@@H]1[C@H](F)C(=O)N[C@@H]1COc1nccc2cc(C(N)=O)c(OC)cc12` [ZIMLOVISERTIB], for which the figures for the % of inhibition in assay [5] and in [6] were 35.1% and -17.5%, respectively.

For `CC(=O)Nc1cccc(-n2c(=O)n(C3CC3)c(=O)c3c(Nc4ccc(I)cc4F)n(C)c(=O)c(C)c32)c1`, the % of control in [7] was found to be 108%.

In assay [8], `COc1cc(Nc2nc(C)cc(-c3cnn4nc(OC)ccc34)n2)cc(C(F)(F)F)c1` had a % of control of 100%.

On to `Cc1cc(F)c(C(=O)Nc2cccc(-c3nncn3C(C)C)n2)cc1-n1cnc(C2CC2)c1`, for which the % of control in [9] came to 100%.

Take `C=CC(=O)Nc1cccc(C(=O)Nc2ccc(Nc3cc(-c4[nH]c(SC)nc4C)ccn3)cc2)c1`: the % of control stood at 84% in assay [10] (at 1 µM) and 94% in assay [10] (at 5 µM).

`C=CC(=O)Nc1cc(-n2c(=O)ccc3cnc4ccc(-c5ccc(NS(C)(=O)=O)cc5)cc4c32)ccc1C` displayed a % of control in assay [11] of 79%.

The values above are taken from ChEMBL document CHEMBL5465560, “Selectivity Literature for EUbOPEN Chemogenomic Library” (2024).
